Numbered stars: 1 amine (or outer) side, 2 acyl side, 3 side chain; on linkers, the order of the positions; unused ones are H or OH. Bridge positions count the residues as written; N and C are the ends. Ends that are not written are not given here. Peptide text beside a SMILES is read from it. Suc = O=C(CCC(=O)[*:2])[*:1]

Series [1] concerns the target T1, TcPink1 (Tribolium castaneum, UniProt D6WMX4).
T1 construct: host or cells: E. coli Rosetta (DE3)
Kind of series: Peptide binding to immobilized protein in vitro, field-effect biosensing (FEB). The conditions noted are these: AGILE Dev Kit graphene biosensor chip, protein 500 nM immobilized by EDC/sulfo-NHS, analyte 50 µL in PBS pH 7.4, Hill fit, mean ± SEM, read-out: KD of the peptides binding to TcPink1. How it is done: In brief: Protein was immobilized/cross-linked into the carboxyl group present on the activated graphene biosensor chip. The analyte is applied in solution to the chip and when an interaction occurs, an alteration in the current (I) is measured and recorded in real-time throughout the experiment. The entire cycle of the experiment starts with calibration using PBS (pH 7.4) to record the baseline equilibration response. Followed by the association step by adding analyte (50 µL) at the desired concentrations in PBS (pH 7.4). After the experiment, data at the concentration points of the analytes were exported from 3 transistors, averaged, and any background drift recorded in PBS was subtracted.
Binding data of the peptides to immobilized protein in vitro was gathered using an AGILE Dev Kit label-free binding assay (Cardea, San Diego, CA, USA). […] After a rinse in PBS, base-line current levels for the chip were recorded for at least 5 min. Next, the PBS was aspirated, and a droplet of the tested analyte (50 μL) was applied to the chip and the change in the sensor chip readout was recorded, after that the analyte was aspirated and the chip was rinsed with PBS. […] After data were gathered, the responses of the sensors on a single assay chip were averaged, and any background drift recorded in PBS was subtracted. […] The KD values were calculated by GraghPad Prism 9, statistical analysis software. […]

Series [2] addresses T2, trypsin (Sus scrofa, UniProt P00761).
T2 construct: purchased Sigma-Aldrich; host or cells: porcine pancreas
Kind of series: Stability of peptides under tryptic degradation, HPLC. The format is in vitro ADME. The conditions noted are these: pig, trypsin from porcine pancreas, porcine pancreas trypsin (1 µL of 1 mg/mL), peptide 2 mg in 800 µL 50 mM Tris pH 8.0, 37 °C, RP-HPLC, 214 nm, relative to time zero, n = 3; for metabolised at 0.5 h, 2.5 mg/mL: 30 min, read-out: Degradation of the peptide by trypsin after 30 min. How it is done: (§1) We tested the stability of the peptides using trypsin, an endopeptidase with specificity for cleaving the amide bond between a cationic amino acid and the next amino acid in the C-terminal direction, which is found in the digestive systems of many vertebrates, and it is commonly used as an important enzymatic reagent in biochemistry and biology.
(§2) The stability of the peptides was measured independently under tryptic degradation at 37 °C (by trypsin degradation of the peptide) and was determined by HPLC analysis (for more experimental details, see “Materials and Methods”) (n = 3). The starting time point (0 min, 100%) represents the peptide at the beginning of each experiment. […] Separation was performed by HPLC in the presence of 0.1% trifluoroacetic acid and detected by absorbance at 214 nm. Peptide amounts were calculated relative to the quantities determined at time point zero.
(§3) In brief: The stability studies of the peptides were performed by dissolving the peptides in Tris buffer and incubating them with trypsin solution at 37 °C using HPLC.
(§4) Further details: Trypsin from porcine pancreas was purchased from Sigma-Aldrich (Saint Louis, MO, USA). Peptide (2 mg) was dissolved in Tris buffer (800 µL, 50 mM (pH 8.0)). The peptide solution was mixed with 1 μL of trypsin solution (1 mg/mL in 50 mM Tris buffer (pH 8.0)). The peptide was incubated at 37 °C and samples (90 μL) were taken at 0, 5, 30, 60, and 120 min. The samples were mixed with TFA/CH3CN/H2O (2%/5%/93%, 90 µL). The peptides were analyzed by analytical reverse-phase high-pressure liquid chromatography (RP-HPLC) 1260 Infinity II LC System from Agilent, (Santa Clara, CA, USA) using a Luna 5 μm C18(2) 100 Å (250 × 4.6 mm) column (Phenomenex, Torrance, CA, USA) at 1 mL/min. The solvent systems used were A (H2O with 0.1% TFA) and B (CH3CN with 0.1% TFA). A linear gradient of 5–50% B in 15 min was applied, and the detection was at 214 nm and 254 nm.

For series [3], the system named is T3, trypsin.
T3 construct: purchased Sigma-Aldrich; host or cells: porcine pancreas
The description is as above. The format is in vitro ADME. The settings on record: pig, trypsin from porcine pancreas; porcine pancreas trypsin (1 µL of 1 mg/mL); peptide 2 mg in 800 µL 50 mM Tris pH 8.0; 37 °C; 120 min; RP-HPLC, 214 nm; relative to time zero; n = 3; read-out: Degradation of the peptide by trypsin after 120 min. How it is done: as §1, §2, §3, §4

In series [4] the target is T1, TcPink1. Kind of series: Cross-linking coupled with mass spectrometry (CLMS), BS3 cross-linker. The format is binding. The settings on record: BS3 cross-link CVP198 to CVP198 (residue 11 to residue 11), self cross-link in the CVP198 + tcPINK1 sample. How it is done:
(§5) Here, two water-soluble cross-linkers were used for the CLMS: 4-(4,6-dimethoxy-1,3,5-triazin-2-yl)-4-methyl-morpholinium chloride (DMTMM), and bis(sulfosuccinimidyl)suberate (BS3). DMTMM is a hetero-bifunctional amine-to-carboxylic acid crosslinker, and BS3 is a homo-bifunctional amine-to-amine crosslinker, which reacts primarily with the ε-amino group of lysine residues in proteins.
(§6) In brief: The recombinant protein and the peptide were incubated together with a crosslinker. The reaction was stopped with a quencher. The proteins were precipitated collected and trypsinased, the outcome was analysed by liquid chromatography mass spectrometry (LCMS).
(§7) A mixture solution of purified protein and peptide was prepared in HEPES buffer (50 mM HEPES, 150 mM NaCl (pH 8.0)). Protein TcPink1’s final concentration was 10 μM and hPink1’s final concentration was 2 μM. The peptide was added at a 1:10 or 1:100 protein-to-peptide ratio, and the mixture incubated with agitation for 20 min at room temperature. For BS3 cross-linking, a solution of BS3 in DMSO (150 mM) was used, which was diluted with the proteins to a final BS3 concentration of 1 mM. The cross-linking reaction was incubated at room temperature for 30 min with agitation. The reaction was quenched by adding ammonium bicarbonate to a final concentration of 30 mM.

Series [5] concerns the target T1, TcPink1. The series can be described thus: Cross-linking coupled with mass spectrometry (CLMS), DMTMM cross-linker. The settings on record: DMTMM cross-link CVP198-CVP198 (both partners the peptide), in the CVP-198 + tcPINK1 sample. The format is binding. How it is done: as §5, §6, §7
The target of series [6] is T4, Tribolium castaneum Pink1 (TcPink1) (Tribolium castaneum, UniProt D6WMX4 6-570).
T4 construct: No cleavage of MBP is described; also called pMal4c Pink1 (Tribolium castaneum) DU34701; not shown: MBP (from the vector pMal4c)
T4 sequence (looked up): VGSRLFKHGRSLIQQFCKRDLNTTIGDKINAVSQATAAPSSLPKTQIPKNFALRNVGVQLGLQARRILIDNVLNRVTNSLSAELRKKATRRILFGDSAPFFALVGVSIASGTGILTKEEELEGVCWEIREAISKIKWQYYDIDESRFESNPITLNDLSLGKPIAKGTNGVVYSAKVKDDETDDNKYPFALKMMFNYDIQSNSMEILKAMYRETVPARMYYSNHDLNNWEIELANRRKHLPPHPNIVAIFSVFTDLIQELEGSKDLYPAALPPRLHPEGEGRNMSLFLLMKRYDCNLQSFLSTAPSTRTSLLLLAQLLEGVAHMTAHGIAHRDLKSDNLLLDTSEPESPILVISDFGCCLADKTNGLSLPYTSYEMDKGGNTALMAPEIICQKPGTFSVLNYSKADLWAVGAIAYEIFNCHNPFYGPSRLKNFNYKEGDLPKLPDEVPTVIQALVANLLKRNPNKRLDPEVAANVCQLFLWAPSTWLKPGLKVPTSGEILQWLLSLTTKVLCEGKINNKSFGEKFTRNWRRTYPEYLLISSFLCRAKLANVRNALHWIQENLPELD
The series can be described thus: field-effect biosensing (FEB); TcPink1 (500 nM) covalently immobilised by EDC/sulfo-NHS on a graphene biosensor chip (AGILE Dev Kit, Cardea); peptides as analyte in PBS pH 7.4 at varying concentrations; Hill fit for KD. The settings on record: both partners purified.

T2 sequence (P00761 9-231): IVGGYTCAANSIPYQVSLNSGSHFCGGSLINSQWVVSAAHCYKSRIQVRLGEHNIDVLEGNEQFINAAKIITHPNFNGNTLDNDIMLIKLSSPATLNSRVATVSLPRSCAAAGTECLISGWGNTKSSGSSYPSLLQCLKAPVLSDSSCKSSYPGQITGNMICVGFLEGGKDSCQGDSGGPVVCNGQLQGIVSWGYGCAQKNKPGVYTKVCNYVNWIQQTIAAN

For `CSCC[C@@H]1NC(=O)[C@H](CCCNC(=N)N)NC(=O)[C@H](CCC(N)=O)NC(=O)[C@H](CC(C)C)NC(=O)CNC(=O)CCC(=O)NCCCC[C@@H](C(=O)NCC(=O)NCC(=O)N[C@@H](Cc2ccc(O)cc2)C(=O)NCC(=O)N[C@@H](CCCNC(=N)N)C(=O)N[C@@H](CCCCN)C(=O)N[C@@H](CCCCN)C(=O)N[C@@H](CCCNC(=N)N)C(=O)N[C@@H](CCCNC(=N)N)C(=O)N[C@@H](CCC(N)=O)C(=O)N[C@@H](CCCNC(=N)N)C(=O)N[C@@H](CCCNC(=N)N)C(=O)N[C@@H](CCCNC(=N)N)C(N)=O)NC(=O)[C@H](CC(C)C)NC(=O)[C@H](CC(=O)O)NC(=O)[C@H](C(C)C)NC(=O)[C@H](CC(C)C)NC(=O)[C@H](C(C)C)NC1=O` [CVP-199] (GLQRMVLVDLKGGYGRKKRRQRRR-NH2; linker N-11 via Suc), the Kd on TcPink1 [1] was 58.31 ± 0.02 µM. For the same molecule, the metabolised at 0.5 h, 2.5 mg/mL at trypsin [2] was found to be 45%. For the same molecule, the metabolised at 2 h, 2.5 mg/mL in the series on trypsin [3] is less than 75%.

For the molecule “Ac-GLQRMVLVDLKGGYGRKKRRQRRR-NH2 [CVP-198]”, the Kd at TcPink1 [1] is 130.47 ± 0.01 µM. Besides, the figures for the XL fragmentation score on TcPink1 [4] and at TcPink1 [5] were 1 and 0.74, respectively. Further, the metabolised at 0.5 h, 2.5 mg/mL on trypsin [2] was approximately 70%. Further, the metabolised at 2 h, 2.5 mg/mL at trypsin [2] (120 min, read-out: Degradation of the peptide by trypsin after 120 min) was approximately 95%.

B1: CVP-200, backbone cyclic peptide (n = 3, bridge size 10, ring size 42) (peptide)
chain: GLQRMVLVDLKGGYGRKKRRQRRR-NH2
modifications: also: backbone cyclic: spacer on N-terminal amine linked to side chain of added lysine, that lysine's position not given here, linker at N via dicarboxylic acid spacer (n = 3), other end not in the chain
In series [6], B1 returned a Kd of 139 µM.

(Values after PMC9181014, “De Novo Development of Mitochondria-Targeted Molecular Probes Targeting Pink1” (International Journal of Molecular Sciences, 2022).)
